Source: US10493027B2, “Chemically stable compositions of a pharmaceutical active agent in a multi- chambered delivery system for mucosal delivery” (MUCODEL PHARMA LLC, priority 2014, dated 2019)
In brackets after ≈: the same amount, converted by molar mass. Counter-ions that a name gives are not always drawn. Like-named read-outs stand apart in the source and are kept apart here.

Tests used:
[1] = cited from earlier work
[2] = cited from earlier work; remark: listed apart in the source
[3] = orally delivered, mice; cited from earlier work
[4] = cited from earlier work; remark: listed apart in the source
[5] = cited from earlier work; remark: listed apart in the source
[6] = Nalbuphine bioavailability study (Example 14)
[7] = cited from earlier work; remark: listed apart in the source

C=CCN1CC[C@]23c4c5ccc(O)c4O[C@H]2C(=O)CC[C@@]3(O)[C@H]1C5 [Naloxone]
pKa [1]: around 7.9 | mean absolute bioavailability of oral Naloxone ([2]; healthy subjects, doses 5 mg to 120 mg): less than or equal to 2% | mean absolute bioavailability ([2]; oral PR tablets, 5 mg dose, based on AUCt): 0.9% | bioavailability [3]: 1% | solubility in water ([4]; Example 5): 1.4 mg/mL (≈ 4.28 mM)

O=C1CC[C@@]2(O)[C@H]3Cc4ccc(O)c5c4[C@@]2(CCN3CC2CC2)[C@H]1O5 [Naltrexone]
increase of permeation (factor) ([5]; pH of NTX increased from 6.8 to 7.5): 1.6 | increase of permeation (factor) ([5]; pH of NTX increased from 6.8 to 8.5): 4.4 | permeation enhancement ([5]; with Brij 58, reconstituted human buccal mucosa): 7.7

Oc1ccc2c3c1O[C@H]1[C@@H](O)CC[C@@]4(O)[C@@H](C2)N(CC2CCC2)CC[C@]314 [nalbuphine hydrochloride]
bioavailability ([6]; human, plasma, other: intranasal, 16.8 mg): > 200% | bioavailability when delivered orally ([7]; oral): approximately 12%

Oc1ccc2c3c1O[C@H]1[C@@H](O)CC[C@@]4(O)[C@@H](C2)N(CC2CCC2)CC[C@]314 [Nalbuphine]
peak plasma achieved faster than intraoral administration ([6]; intranasal): ~1000% | maximum drug plasma concentration higher than conventional oral formulation ([6]; intranasal, equivalent dose): ~500% | t1/2 ([7]; i.v., 20 mg): 3.7 h | t1/2 ([7]; p.o., 60 mg): 4.65 h | tmax ([7]; p.o., 60 mg): 0.777 h | solubility in water ([4]; Example 14 text): about 35 mg/g

C=CCN1CC[C@]23c4c5ccc(O)c4O[C@H]2C(=O)CC[C@@]3(O)[C@H]1C5 [Naloxone HCl, naloxone hydrochloride]
solubility in water ([4]; US EPA EPI Suite reference): 73 mg/mL | solubility in water ([4]; room temperature): greater than 70 mg/g
